From paper PMC5218480 (PLoS ONE, 2017) come the findings set out here.

The assay has as its system MV-4-11 cells. Description: Gene expression microarray analysis (Affymetrix PrimeView) and GSEA. The class given is cell-based, human. Details: RFU PODN (11730768_x_at) / Fold change /veh PODN (11730768_x_at) / RFU LINC00158 (11744669_a_at) / Fold change /veh LINC00158 (11744669_a_at) / RFU DUSP10 (11751237_a_at) / Fold change /veh DUSP10 (11751237_a_at) / RFU ID3 (11757404_x_at) / Fold change /veh ID3 (11757404_x_at) / RFU PLEKHG5 (11737974_s_at) / Fold change /veh PLEKHG5 (11737974_s_at) / RFU LRRC4B (11730491_at) / Fold change /veh LRRC4B (11730491_at) / RFU GIMAP4 (11747438_a_at) / Fold change /veh GIMAP4 (11747438_a_at) / RFU KRT8 (11758183_x_at) / Fold change /veh KRT8 (11758183_x_at) / RFU CNN1 (11734310_a_at) / Fold change /veh CNN1 (11734310_a_at) / RFU VPS37D (11726825_at) / Fold change /veh VPS37D (11726825_at) / RFU C10orf10 (11716522_x_at) / Fold change /veh C10orf10 (11716522_x_at) / RFU KIR2DL2 /// KIR2DL4 /// KIR2DL5A /// KIR2DL5B /// KIR2DS1 /// KIR2DS2 /// KIR2DS3 /// KIR2DS4 /// KIR3DL3 /// KIR3DL3 /// KIR3DS1 (11738374_at) / Fold change /veh KIR2DL2 /// KIR2DL4 /// KIR2DL5A /// KIR2DL5B /// KIR2DS1 /// KIR2DS2 /// KIR2DS3 /// KIR2DS4 /// KIR3DL3 /// KIR3DL3 /// KIR3DS1 (11738374_at) / RFU C1QL1 (11718748_at) / Fold change /veh C1QL1 (11718748_at) / RFU TMPRSS4 (11747572_a_at) / Fold change /veh TMPRSS4 (11747572_a_at) / RFU HAMP (11756126_x_at) / Fold change /veh HAMP (11756126_x_at) / RFU RNFT2 (11725882_a_at) / Fold change /veh RNFT2 (11725882_a_at) / RFU NR4A2 (11747474_a_at) / Fold change /veh NR4A2 (11747474_a_at) / RFU ABCC12 (11746883_a_at) / Fold change /veh ABCC12 (11746883_a_at) / RFU TMEM136 (11760407_x_at) / Fold change /veh TMEM136 (11760407_x_at) / RFU CLDN22 /// WWC2 (11732394_at) / Fold change /veh CLDN22 /// WWC2 (11732394_at) / RFU HLA-DPB1 (11760878_x_at) / Fold change /veh HLA-DPB1 (11760878_x_at) / RFU SPINT1 (11716480_a_at) / Fold change /veh SPINT1 (11716480_a_at) / RFU GAP43 (11754022_s_at) / Fold change /veh GAP43 (11754022_s_at) / RFU A4GNT (11735810_at) / Fold change /veh A4GNT (11735810_at) / RFU PRB3 (11715151_x_at) / Fold change /veh PRB3 (11715151_x_at) / RFU TUBB4B (11761932_at) / Fold change /veh TUBB4B (11761932_at) / RFU CAPN14 (11732068_a_at) / Fold change /veh CAPN14 (11732068_a_at) / RFU TMCC2 (11721928_a_at) / Fold change /veh TMCC2 (11721928_a_at) / RFU IRGQ (11745062_a_at) / Fold change /veh IRGQ (11745062_a_at) / RFU FAM174B (11720279_a_at) / Fold change /veh FAM174B (11720279_a_at) / RFU TMPRSS4 (11748680_a_at) / Fold change /veh TMPRSS4 (11748680_a_at) / RFU FAM212B (11763350_a_at) / Fold change /veh FAM212B (11763350_a_at) / RFU PLEKHG5 (11743358_a_at) / Fold change /veh PLEKHG5 (11743358_a_at) / RFU ZSCAN30 (11745921_a_at) / Fold change /veh ZSCAN30 (11745921_a_at) / RFU CMKLR1 (11741424_a_at) / Fold change /veh CMKLR1 (11741424_a_at) / RFU LOC101060620 /// MAPK8IP1 (11723275_at) / Fold change /veh LOC101060620 /// MAPK8IP1 (11723275_at) / RFU SPTSSB (11747773_x_at) / Fold change /veh SPTSSB (11747773_x_at) / RFU PRSS12 (11739890_at) / Fold change /veh PRSS12 (11739890_at) / RFU BIN1 (11741810_x_at) / Fold change /veh BIN1 (11741810_x_at) / RFU WNT11 (11732464_a_at) / Fold change /veh WNT11 (11732464_a_at) / RFU C10orf10 (11716521_a_at) / Fold change /veh C10orf10 (11716521_a_at) / RFU C5orf56 (11738089_at) / Fold change /veh C5orf56 (11738089_at) / RFU CYB561 (11721691_x_at) / Fold change /veh CYB561 (11721691_x_at) / RFU ANKRD19P (11752326_a_at) / Fold change /veh ANKRD19P (11752326_a_at) / RFU OR2T12 /// OR2T33 /// OR2T8 (11738714_s_at) / Fold change /veh OR2T12 /// OR2T33 /// OR2T8 (11738714_s_at) / RFU VCAN (11748164_a_at) / Fold change /veh VCAN (11748164_a_at) / RFU JSRP1 (11732532_at) / Fold change /veh JSRP1 (11732532_at) / RFU KRTAP10-11 (11738290_x_at) / Fold change /veh KRTAP10-11 (11738290_x_at) / RFU MYO3A (11730013_a_at) / Fold change /veh MYO3A (11730013_a_at) / RFU EBF3 (11725865_a_at) / Fold change /veh EBF3 (11725865_a_at) / RFU CAMK2N1 (11719241_x_at) / Fold change /veh CAMK2N1 (11719241_x_at) / RFU C5orf56 (11738088_a_at) / Fold change /veh C5orf56 (11738088_a_at) / RFU OLFML3 (11715873_a_at) / Fold change /veh OLFML3 (11715873_a_at) / RFU LOC100653217 /// NTM (11731650_a_at) / Fold change /veh LOC100653217 /// NTM (11731650_a_at) / RFU MAPK11 (11762145_a_at) / Fold change /veh MAPK11 (11762145_a_at) / RFU FIZ1 (11724087_x_at) / Fold change /veh FIZ1 (11724087_x_at) / RFU OASL (11726364_x_at) / Fold change /veh OASL (11726364_x_at) / RFU SOX15 (11748057_x_at) / Fold change /veh SOX15 (11748057_x_at) / RFU CD79A (11719716_a_at) / Fold change /veh CD79A (11719716_a_at) / RFU HIST1H1D (11736915_at) / Fold change /veh HIST1H1D (11736915_at) / RFU CASKIN2 (11723855_a_at) / Fold change /veh CASKIN2 (11723855_a_at) / RFU LOC730098 (11760151_x_at) / Fold change /veh LOC730098 (11760151_x_at) / RFU OR4N2 (11742367_at) / Fold change /veh OR4N2 (11742367_at) / RFU PRRT2 (11749266_a_at) / Fold change /veh PRRT2 (11749266_a_at) / RFU SNX32 (11753110_a_at) / Fold change /veh SNX32 (11753110_a_at) / RFU CDHR5 (11726645_a_at) / Fold change /veh CDHR5 (11726645_a_at) / RFU RCAN1 (11760418_a_at) / Fold change /veh RCAN1 (11760418_a_at) / RFU FAM167A (11723789_a_at) / Fold change /veh FAM167A (11723789_a_at) / RFU FAM26E (11764081_at) / Fold change /veh FAM26E (11764081_at) / RFU ISYNA1 (11749810_s_at) / Fold change /veh ISYNA1 (11749810_s_at) / RFU ACY1 (11761880_at) / Fold change /veh ACY1 (11761880_at) / RFU 11764098_at / Fold change /veh 11764098_at / RFU SAMD14 (11745864_x_at) / Fold change /veh SAMD14 (11745864_x_at) / RFU NPB (11741838_a_at) / Fold change /veh NPB (11741838_a_at) / RFU TMPRSS6 (11731388_a_at) / Fold change /veh TMPRSS6 (11731388_a_at) / RFU KRTAP10-2 (11738614_at) / Fold change /veh KRTAP10-2 (11738614_at) / RFU ARHGAP8 /// PRR5-ARHGAP8 (11727945_x_at) / Fold change /veh ARHGAP8 /// PRR5-ARHGAP8 (11727945_x_at) / RFU KRTAP5-7 /// NADSYN1 (11734609_at) / Fold change /veh KRTAP5-7 /// NADSYN1 (11734609_at) / RFU RASL12 (11751679_a_at) / Fold change /veh RASL12 (11751679_a_at) / RFU CDKN2B (11736163_a_at) / Fold change /veh CDKN2B (11736163_a_at) / RFU PRF1 (11729649_at) / Fold change /veh PRF1 (11729649_at) / RFU, ZNF638 /// ZNF638-IT1 / Fold change vs veh, ZNF638 /// ZNF638-IT1 / RFU, PANK3 / Fold change vs veh, PANK3 / RFU, SH3YL1 / Fold change vs veh, SH3YL1 / RFU, ZEB2 / Fold change vs veh, ZEB2 / RFU, NRIP1 / Fold change vs veh, NRIP1 / RFU, PTTG1IP / Fold change vs veh, PTTG1IP / RFU, CAPN2 / Fold change vs veh, CAPN2 / RFU, MED14 / Fold change vs veh, MED14 / RFU, SNORA58 / Fold change vs veh, SNORA58 / RFU, C1orf63 / Fold change vs veh, C1orf63 / RFU, LRRFIP1 / Fold change vs veh, LRRFIP1 / RFU, NDUFAF7 / Fold change vs veh, NDUFAF7 / RFU, SLC12A2 / Fold change vs veh, SLC12A2 / RFU, IBTK / Fold change vs veh, IBTK / RFU, ESF1 / Fold change vs veh, ESF1 / Fold change vs veh, TMEM50B / RFU, TAOK1 / Fold change vs veh, TAOK1 / RFU, ACBD3 / Fold change vs veh, ACBD3 / RFU, TMA16 / Fold change vs veh, TMA16 / RFU, RWDD3 / Fold change vs veh, RWDD3 / RFU, BCAT1 / Fold change vs veh, BCAT1 / RFU, EDEM3 / Fold change vs veh, EDEM3 / RFU, TMEM33 / Fold change vs veh, TMEM33 / RFU, WDR75 / Fold change vs veh, WDR75 / RFU, AHCTF1 / Fold change vs veh, AHCTF1 / RFU, TFRC / Fold change vs veh, TFRC / RFU, ZDHHC17 / Fold change vs veh, ZDHHC17 / RFU, NOM1 / Fold change vs veh, NOM1 / RFU, ARL8B / Fold change vs veh, ARL8B / RFU, ZBTB11 / Fold change vs veh, ZBTB11 / RFU, TAMM41 / Fold change vs veh, TAMM41 / RFU, KIAA1704 /// LOC100996395 / Fold change vs veh, KIAA1704 /// LOC100996395 / RFU, ING1 / Fold change vs veh, ING1 / RFU, TRMT61B / Fold change vs veh, TRMT61B / RFU, FUBP3 / Fold change vs veh, FUBP3 / RFU, TP53 / Fold change vs veh, TP53 / RFU, TNKS2 / Fold change vs veh, TNKS2 / RFU, ZFP14 / Fold change vs veh, ZFP14 / RFU, ACTR2 / Fold change vs veh, ACTR2 / RFU, PPP3R1 / Fold change vs veh, PPP3R1 / RFU, PIK3R1 / Fold change vs veh, PIK3R1 / RFU, HNRNPA1 / Fold change vs veh, HNRNPA1 / RFU, RNF170 / Fold change vs veh, RNF170 / RFU, ZNF28 / Fold change vs veh, ZNF28 / RFU, RNGTT / Fold change vs veh, RNGTT / RFU, OGT / Fold change vs veh, OGT / RFU, BRD1 / Fold change vs veh, BRD1 / RFU, MARS / Fold change vs veh, MARS / RFU, ZNF655 / Fold change vs veh, ZNF655 / RFU, FAHD1 / Fold change vs veh, FAHD1 / RFU, BDP1 / Fold change vs veh, BDP1 / RFU, LRRCC1 / Fold change vs veh, LRRCC1 / RFU, ARID1A / Fold change vs veh, ARID1A / RFU, ZNF146 / Fold change vs veh, ZNF146 / RFU, ZNF330 / Fold change vs veh, ZNF330 / RFU, GPN3 / Fold change vs veh, GPN3 / RFU, C9orf123 / Fold change vs veh, C9orf123 / RFU, N4BP2L2 / Fold change vs veh, N4BP2L2 / RFU, ARFIP1 / Fold change vs veh, ARFIP1 / RFU, FAM179B / Fold change vs veh, FAM179B / RFU, BCL10 / Fold change vs veh, BCL10 / RFU, UHRF1BP1L / Fold change vs veh, UHRF1BP1L / RFU, BET1 / Fold change vs veh, BET1 / RFU, CNOT2 / Fold change vs veh, CNOT2 / RFU, ZNF268 / Fold change vs veh, ZNF268 / Fold change vs veh, ZNF507 / RFU, DGCR2 / Fold change vs veh, DGCR2 / RFU, WDSUB1 / Fold change vs veh, WDSUB1 / Fold change vs veh, HSP90B1 /// MIR3652 / RFU, ADSS / Fold change vs veh, ADSS / RFU, GK / Fold change vs veh, GK / RFU, ZNF148 / Fold change vs veh, ZNF148 / RFU, TAF9 / Fold change vs veh, TAF9 / RFU, SLC1A5 / Fold change vs veh, SLC1A5 / RFU, SLMO2 / Fold change vs veh, SLMO2 / RFU, ABCC4 / Fold change vs veh, ABCC4 / RFU, LOC101060439 /// RAP1B / Fold change vs veh, LOC101060439 /// RAP1B / RFU, RFX7 / Fold change vs veh, RFX7 / RFU, GTPBP10 / Fold change vs veh, GTPBP10 / RFU, CNEP1R1 / Fold change vs veh, CNEP1R1 / RFU, BIVM-ERCC5 /// ERCC5 / Fold change vs veh, BIVM-ERCC5 /// ERCC5 / RFU, ILF3 / Fold change vs veh, ILF3 / RFU 11762660_at / Fold change /veh 11762660_at / RFU VCAN (11757783_s_at) / Fold change /veh VCAN (11757783_s_at) / RFU DDX43 (11728927_at) / Fold change /veh DDX43 (11728927_at) / RFU KRT8 (11758188_x_at) / Fold change /veh KRT8 (11758188_x_at) / RFU NKD1 (11759106_at) / Fold change /veh NKD1 (11759106_at) / RFU SRD5A1 (11742802_a_at) / Fold change /veh SRD5A1 (11742802_a_at) / RFU TPSAB1 /// TPSB2 (11721975_s_at) / Fold change /veh TPSAB1 /// TPSB2 (11721975_s_at) / RFU GSTM3 (11746129_a_at) / Fold change /veh GSTM3 (11746129_a_at) / RFU IL23R (11737362_x_at) / Fold change /veh IL23R (11737362_x_at) / RFU TMEM51 (11727254_a_at) / Fold change /veh TMEM51 (11727254_a_at) / RFU PIWIL2 (11732686_x_at) / Fold change /veh PIWIL2 (11732686_x_at) / RFU ORM1 (11744905_x_at) / Fold change /veh ORM1 (11744905_x_at) / RFU CCDC152 (11743942_at) / Fold change /veh CCDC152 (11743942_at) / RFU ECM1 (11717891_a_at) / Fold change /veh ECM1 (11717891_a_at) / RFU IL23R (11748794_a_at) / Fold change /veh IL23R (11748794_a_at) / RFU TNFAIP8L3 (11732012_x_at) / Fold change /veh TNFAIP8L3 (11732012_x_at) / RFU MBOAT4 (11741988_at) / Fold change /veh MBOAT4 (11741988_at) / RFU 11764193_at / Fold change /veh 11764193_at / RFU TMEM53 (11763286_at) / Fold change /veh TMEM53 (11763286_at) / RFU MAGEB2 (11727129_at) / Fold change /veh MAGEB2 (11727129_at) / RFU TMEM200A (11744735_a_at) / Fold change /veh TMEM200A (11744735_a_at) / RFU CCDC152 (11751479_a_at) / Fold change /veh CCDC152 (11751479_a_at) / RFU FAM211A (11726209_a_at) / Fold change /veh FAM211A (11726209_a_at) / RFU RGS16 (11746705_a_at) / Fold change /veh RGS16 (11746705_a_at) / RFU VCAN (11755009_s_at) / Fold change /veh VCAN (11755009_s_at) / RFU RHOB (11743442_s_at) / Fold change /veh RHOB (11743442_s_at) / RFU RGS16 (11720943_a_at) / Fold change /veh RGS16 (11720943_a_at) / RFU RGS16 (11720944_at) / Fold change /veh RGS16 (11720944_at) / RFU, VPS4B / Fold change vs veh, VPS4B / RFU, CREB1 / Fold change vs veh, CREB1 / RFU, DNAJC13 / Fold change vs veh, DNAJC13 / RFU, GNAQ / Fold change vs veh, GNAQ / RFU, CDK5R1 / Fold change vs veh, CDK5R1 / RFU, ZRANB3 / Fold change vs veh, ZRANB3 / RFU, CUL4A / Fold change vs veh, CUL4A / RFU, CCNY / Fold change vs veh, CCNY / RFU, UFL1 / Fold change vs veh, UFL1 / RFU, COG3 / Fold change vs veh, COG3 / RFU, DIAPH2 / Fold change vs veh, DIAPH2 / RFU, SKA2 / Fold change vs veh, SKA2 / RFU, AFF3 / Fold change vs veh, AFF3 / RFU, LMF1 / Fold change vs veh, LMF1 / RFU, IPO11 / Fold change vs veh, IPO11 / RFU, DFFB / Fold change vs veh, DFFB / RFU, FOXP1 / Fold change vs veh, FOXP1 / RFU, CARD8 / Fold change vs veh, CARD8 / RFU, STRN3 / Fold change vs veh, STRN3 / RFU, ADK / Fold change vs veh, ADK / RFU, RASSF2 / Fold change vs veh, RASSF2 / RFU, WIPF1 / Fold change vs veh, WIPF1 / RFU, LARP1B / Fold change vs veh, LARP1B / RFU, RASA1 / Fold change vs veh, RASA1 / RFU, RB1 / Fold change vs veh, RB1 / RFU, PPFIA1 / Fold change vs veh, PPFIA1 / RFU, MAT2A / Fold change vs veh, MAT2A / RFU, CCT5 / Fold change vs veh, CCT5 / RFU, WDR92 / Fold change vs veh, WDR92 / RFU, CUX1 / Fold change vs veh, CUX1 / RFU, TTC7A / Fold change vs veh, TTC7A / RFU, TMEM135 / Fold change vs veh, TMEM135 / RFU, DEPTOR / Fold change vs veh, DEPTOR / RFU, CPM / Fold change vs veh, CPM / RFU, DNAJB6 / Fold change vs veh, DNAJB6 / RFU, CACNA2D3 / Fold change vs veh, CACNA2D3 / RFU, DTX4 / Fold change vs veh, DTX4 / RFU, TFCP2 / Fold change vs veh, TFCP2 / RFU, GMCL1 /// GMCL1P1 / Fold change vs veh, GMCL1 /// GMCL1P1 / RFU, AEBP2 / Fold change vs veh, AEBP2 / RFU, SNHG1 /// SNORD22 /// SNORD25 /// SNORD26 /// SNORD27 /// SNORD28 /// SNORD29 /// SNORD31 / Fold change vs veh, SNHG1 /// SNORD22 /// SNORD25 /// SNORD26 /// SNORD27 /// SNORD28 /// SNORD29 /// SNORD31 / Fold change (Aza/veh), C12orf56 (ProbeSet 11735607_a_at) / Fold change (ACY-1035/veh), C12orf56 (ProbeSet 11735607_a_at) / Fold change (Aza/veh), FGFR1OP (ProbeSet 11751329_s_at) / Fold change (ACY-1035/veh), FGFR1OP (ProbeSet 11751329_s_at) / Fold change (Aza/veh), VPS36 (ProbeSet 11739960_a_at) / Fold change (ACY-1035/veh), VPS36 (ProbeSet 11739960_a_at) / RFU SYPL1 (11715823_x_at) / Fold change /veh SYPL1 (11715823_x_at) / RFU IGFBP7 (11715501_s_at) / Fold change /veh IGFBP7 (11715501_s_at) / RFU REEP3 (11722064_at) / Fold change /veh REEP3 (11722064_at) / RFU IGLL1 (11728026_x_at) / Fold change /veh IGLL1 (11728026_x_at): dose or concentration left out as unconfirmed. The settings on record: MV-4-11 cells, 48 hours.

For `Nc1ncn([C@@H]2O[C@H](CO)[C@@H](O)[C@H]2O)c(=O)n1` [azacitidine], the “RFU SPTSSB (11747773_x_at)” value stood at 34.53 RFU.
